Experimental data as given in patent US4552882A, “7-(1-Pyrrolyl) derivatives of 1-ethyl-1,4-dihydro-4-oxoquinoline-3-carboxylic acids and 1-ethyl-1,4-dihydro-4-oxo-1,8-naphthyridine-3-carboxylic acids and their use as antimicrobial agents” (Provesan, SA, priority 1983, dated 1985).
Values after ≈ are worked out from the molar mass of the structure shown.

Tested on: gram-negative microorganisms
Test: in vitro antimicrobial activity compared to pipemidic acid
Type: cell-based
Details: not given
Experimental: (G. L. Daquet and Y. A. Chabbect, Techniques en bacteriologie (Bacteriological techniques), vol. 3, Flammarion Medecine Sciences, Paris, 1972 and W. B. Hugo and A. D. Rusell, Pharmaceutical Microbiology, Blackwell Scientific Publications, London, (1977)).
Antibiotic medium no. 1 (seed agar) (Oxoid CM 327)
Tryptone-soya broth (Oxoid CM 129)
Ringer's physiological solution 1/4 (oxoid BR 52) Dextrose agar (BBL-11165) 0.1 N NaOH
Each of the microorganisms is seeded by streaking in tubes of Antibiotic medium No. 1 (seed agar), which are then incubated at 37° C. for 20 hours. Using a culture loop, the cultures are then seeded in tryptone-soyabroth and incubated at 37° C. for 20 hours. The culture obtained is diluted to 1/4 with Ringer's physiological solution, so as to obtain a standardized suspension of 10^7 -10^9 cfu/ml for each organism.
Starting from a solution of 1,000 μg/ml in 0.1 N NaOH, each product is diluted in Dextrose agar (previously melted and maintained at 50° C.), with successive dilutions so as to obtain the following concentrations: 64--32--16--8--4--2--1--0.5--0.25--0.125 μg of derivative/ml medium.
For each product, the solution of each concentration is subsequently distributed into Petri dishes 10 cm in diameter, with 10 ml of medium per dish and the same number of dishes as microorganisms to be tested.
As soon as the medium has cooled, the dishes are seeded with the inoculations using 0.4 ml of inoculation per dish. They are spread with a Driglasky loop and the supernatant is removed. The seeded dishes are incubated at 37° C. for 20 hours.

Row | SMILES | activity compared to pipemidic acid
1 | CCn1cc(C(=O)O)c(=O)c2ccc(-n3cccc3)nc21 [Example 3, 1-ethyl-1,4-dihydro-4-oxo-7-(1-pyrrolyl)-1,8-naphthyridine-3-carboxylic acid] | activity of the same order as that of pipemidic acid

Tested on: Escherichia coli R-1513
Test: MIC in vitro
Type: cell-based
Details: R1513, Dextrose agar, 37° C., 20 hours
Experimental: (G. L. Daquet and Y. A. Chabbect, Techniques en bacteriologie (Bacteriological techniques), vol. 3, Flammarion Medecine Sciences, Paris, 1972 and W. B. Hugo and A. D. Rusell, Pharmaceutical Microbiology, Blackwell Scientific Publications, London, (1977)). Antibiotic medium no. 1 (seed agar) (Oxoid CM 327) Tryptone-soya broth (Oxoid CM 129) Ringer's physiological solution 1/4 (oxoid BR 52) Dextrose agar (BBL-11165) 0.1 N NaOH "Escherichia coli" R-1513 Each of the microorganisms is seeded by streaking in tubes of Antibiotic medium No. 1 (seed agar), which are then incubated at 37° C. for 20 hours. Using a culture loop, the cultures are then seeded in tryptone-soyabroth and incubated at 37° C. for 20 hours. The culture obtained is diluted to 1/4 with Ringer's physiological solution, so as to obtain a standardized suspension of 10^7 -10^9 cfu/ml for each organism. Starting from a solution of 1,000 μg/ml in 0.1 N NaOH, each product is diluted in Dextrose agar (previously melted and maintained at 50° C.), with successive dilutions so as to obtain the following concentrations: 64--32--16--8--4--2--1--0.5--0.25--0.125 μg of derivative/ml medium. For each product, the solution of each concentration is subsequently distributed into Petri dishes 10 cm in diameter, with 10 ml of medium per dish and the same number of dishes as microorganisms to be tested. As soon as the medium has cooled, the dishes are seeded with the inoculations using 0.4 ml of inoculation per dish. They are spread with a Driglasky loop and the supernatant is removed. The seeded dishes are incubated at 37° C. for 20 hours.

Row | SMILES | MIC
2 | CCn1cc(C(=O)O)c(=O)c2ccc(-n3cccc3)cc21 [Example 1, 7-(1-pyrrolyl)-1-ethyl-1,4-dihydro-4-oxo-3-quinolinecarboxylic acid] | 16 µg/mL (≈ 56.7 µM)
3 | CCn1cc(C(=O)O)c(=O)c2cc(F)c(-n3cccc3)nc21 [Example 4, 1-ethyl-1,4-dihydro-4-oxo-6-fluoro-7-(1-pyrrolyl)-1,8-naphthyridine-3-carboxylic acid] | 4 µg/mL (≈ 13.3 µM)
4 | CCn1cc(C(=O)O)c(=O)c2cc(F)c(-n3cccc3)cc21 [Example 2, 6-fluoro-7-(1-pyrrolyl)-1-ethyl-1,4-dihydro-4-oxo-3-quinolinecarboxylic acid] | 4 µg/mL (≈ 13.3 µM)
5 | CCn1cc(C(=O)O)c(=O)c2ccc(-n3cccc3)nc21 [Example 3, 1-ethyl-1,4-dihydro-4-oxo-7-(1-pyrrolyl)-1,8-naphthyridine-3-carboxylic acid] | 16 µg/mL (≈ 56.5 µM)
6 | CCn1cc(C(=O)O)c(=O)c2cnc(N3CCNCC3)nc21 [Pipemidic acid, reference compound] | 16 µg/mL (≈ 52.7 µM)
